Experimental data from ChEMBL document CHEMBL4420080, “Inhibitors of sox18 protein activity for treating angiogenesis- and/or lymphangiogenesis-related diseases” (2018).
Calls of active or inactive are those of the source. No cut-off for these calls is given here.

Legend:
[1] = molecular target: Protein c-Fos (Homo sapiens) (UniProt P01100); test: Inhibition of c-FOS in HUVEC assessed as reduction of c-FOS transcriptional activity by genome-wide RNA-seq and ChlP-seq analysis; assay type: cell-based
Danio rerio [2] = test: Induction of arterial and venous genes dys-regulation in zebrafish larvae harboring fli1 a:eGFP,-6.5kdrl:mCherry assessed as effect on mCherry gene expression at 1.5 uM dosed starting from 16 hpf and measured at 24 and 48 hpf by qRT-PCR analysis; assay type: functional, organism-based
4T1.2 [3] = test: Antitumor activity against mouse 4T1.2 cells implanted in BALB/c mouse assessed as median disease latency time at 50 mg/kg/day for 10 days (Rvb =40 days); assay type: functional
[4] = molecular target: Alpha-1B adrenergic receptor (Rattus norvegicus) (UniProt P15823); test: Inhibition of rat adrenergic alpha1B receptor at 10 uM relative to control
[5] = molecular target: Beta-1 adrenergic receptor (Homo sapiens) (UniProt P08588); test: Inhibition of human adrenergic beta1 receptor at 10 uM relative to control
4T1.2 [6] = test: Antitumor activity against mouse 4T1.2 cells implanted in BALB/c mouse assessed as reduction in mean number of lung metastases at 25 mg/kg/day for 10 days measured at day 28 after tumor inoculation relative to control; assay type: functional; design: scale not given: the % may be the effect or the level left
Danio rerio [7] = test: Induction of arterial and venous genes dys-regulation in zebrafish larvae harboring fli1 a:eGFP,-6.5kdrl:mCherry assessed as effect on Ilt4 gene expression at 1.5 uM dosed starting from 16 hpf and measured at 24 and 48 hpf by qRT-PCR analysis; assay type: functional, organism-based
4T1.2 [8] = test: Inhibition of tumor induced vascular response in mouse 4T1.2 cells implanted BALB/c mouse assessed as reduction in volume of the blood vessels in tumor region at 25 mg/kg/day for 10 days by ERG/EMCN-detection based immunofluorescent staining relative to control; assay type: functional; conditions: 4T1.2, 240 h
Danio rerio [9] = test: Induction of arterial and venous genes dys-regulation in zebrafish larvae harboring fli1 a:eGFP,-6.5kdrl:mCherry assessed as effect on hey2 gene expression at 1.5 uM dosed starting from 16 hpf and measured at 24 and 48 hpf by qRT-PCR analysis; assay type: functional, organism-based
L-type calcium channel = L-type calcium channel (Rattus norvegicus, UniProt P22002+P27732+Q02485); test: Inhibition of rat L-type calcium channel at 10 uM relative to control; assay type: protein assay

Chain of Alpha-1B adrenergic receptor (Rattus norvegicus) (P15823 whole entry): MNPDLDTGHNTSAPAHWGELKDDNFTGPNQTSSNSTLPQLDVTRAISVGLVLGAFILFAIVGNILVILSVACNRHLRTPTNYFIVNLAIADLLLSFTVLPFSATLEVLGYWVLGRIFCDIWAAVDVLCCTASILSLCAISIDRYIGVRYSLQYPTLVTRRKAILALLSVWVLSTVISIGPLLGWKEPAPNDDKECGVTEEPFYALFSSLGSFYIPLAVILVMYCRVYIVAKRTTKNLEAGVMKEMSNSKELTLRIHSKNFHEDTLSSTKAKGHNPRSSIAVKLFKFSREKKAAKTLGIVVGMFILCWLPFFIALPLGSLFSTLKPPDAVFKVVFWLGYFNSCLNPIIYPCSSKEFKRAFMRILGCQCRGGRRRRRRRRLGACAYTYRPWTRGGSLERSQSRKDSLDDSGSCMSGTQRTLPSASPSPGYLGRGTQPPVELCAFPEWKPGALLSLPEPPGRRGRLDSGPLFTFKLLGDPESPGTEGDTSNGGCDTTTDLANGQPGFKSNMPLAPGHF
Chain of Beta-1 adrenergic receptor (Homo sapiens) (P08588 whole entry, looked up): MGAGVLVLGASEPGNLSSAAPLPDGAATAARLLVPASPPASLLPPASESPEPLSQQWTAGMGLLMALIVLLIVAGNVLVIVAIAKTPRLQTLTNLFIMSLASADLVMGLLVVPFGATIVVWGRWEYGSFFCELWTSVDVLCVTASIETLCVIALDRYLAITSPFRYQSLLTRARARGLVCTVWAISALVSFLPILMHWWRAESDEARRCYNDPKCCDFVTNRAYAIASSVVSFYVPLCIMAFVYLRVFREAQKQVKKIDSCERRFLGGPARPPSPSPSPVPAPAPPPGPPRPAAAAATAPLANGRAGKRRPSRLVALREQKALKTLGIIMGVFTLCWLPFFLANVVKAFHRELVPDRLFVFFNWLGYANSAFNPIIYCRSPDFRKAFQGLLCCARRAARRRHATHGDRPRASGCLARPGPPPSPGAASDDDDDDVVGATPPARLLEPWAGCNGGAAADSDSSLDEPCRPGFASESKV
Chain of Protein c-Fos (Homo sapiens) (P01100 whole entry): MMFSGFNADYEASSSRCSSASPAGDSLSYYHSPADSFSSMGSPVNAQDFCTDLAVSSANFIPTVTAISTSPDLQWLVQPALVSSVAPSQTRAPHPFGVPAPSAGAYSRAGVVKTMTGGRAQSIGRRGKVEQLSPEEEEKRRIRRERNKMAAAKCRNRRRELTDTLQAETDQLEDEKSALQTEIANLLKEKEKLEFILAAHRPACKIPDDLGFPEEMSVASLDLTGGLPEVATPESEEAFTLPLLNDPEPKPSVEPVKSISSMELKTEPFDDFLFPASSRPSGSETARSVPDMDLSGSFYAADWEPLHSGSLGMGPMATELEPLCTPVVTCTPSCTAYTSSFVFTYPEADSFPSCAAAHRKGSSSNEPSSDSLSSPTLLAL

inhibition [1]: inactive | inhibition [4]: -1% | inhibition [5]: 6% | inhibition at 10 µM (L-type calcium channel): -8%
SMILES: O=C(O)c1c(O)cccc1CCc1ccc2ccccc2c1
Activity (Danio rerio [2]): Active | Time (4T1.2 [3]): 73 days | Activity (4T1.2 [6]): 67% | Activity (Danio rerio [7]): Active | inhibition in vivo at 25 mg/kg/day (4T1.2 [8]): 55% | Activity (Danio rerio [9]): Active
